Data taken from PubChem BioAssay (NCI).
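A five-concentration, 48-hour dose response in 96-well plates underlies each endpoint, interpolated linearly between surrounding concentrations. The concentration for 50% growth inhibition is given as GI50. The concentration for full growth arrest is given as TGI.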

Tests used:
Test in all cases: NCI-60 cell line screen, 48 h
SN12C renal = test system: SN12C renal
SK-MEL-28 melanoma = test system: SK-MEL-28 melanoma
DU-145 prostate = test system: DU-145 prostate
NCI/ADR-RES ovarian = test system: NCI/ADR-RES ovarian
A549 NSCLC = test system: A549 NSCLC
T-47D breast = test system: T-47D breast
HOP-92 NSCLC = test system: HOP-92 NSCLC
A498 renal = test system: A498 renal
OVCAR-3 ovarian = test system: OVCAR-3 ovarian
TK-10 renal = test system: TK-10 renal
SF-539 CNS = test system: SF-539 CNS
HCT-15 colon = test system: HCT-15 colon
HS 578T breast = test system: HS 578T breast
SNB-75 CNS = test system: SNB-75 CNS
CAKI-1 renal = test system: CAKI-1 renal
EKVX NSCLC = test system: EKVX NSCLC
OVCAR-8 ovarian = test system: OVCAR-8 ovarian
HL-60(TB) leukemia = test system: HL-60(TB) leukemia
M14 melanoma = test system: M14 melanoma
HOP-62 NSCLC = test system: HOP-62 NSCLC
SW-620 colon = test system: SW-620 colon
MCF7 breast = test system: MCF7 breast
NCI-H522 lung = test system: NCI-H522 lung
U251 CNS = test system: U251 CNS
SR leukemia = test system: SR leukemia
MALME-3M melanoma = test system: MALME-3M melanoma
UO-31 renal = test system: UO-31 renal
786-0 renal = test system: 786-0 renal
NCI-H226 lung = test system: NCI-H226 lung
SNB-19 CNS = test system: SNB-19 CNS
UACC-62 melanoma = test system: UACC-62 melanoma
COLO 205 colon = test system: COLO 205 colon
KM12 colon = test system: KM12 colon
RPMI-8226 leukemia = test system: RPMI-8226 leukemia
OVCAR-4 ovarian = test system: OVCAR-4 ovarian
HCT-116 colon = test system: HCT-116 colon
CCRF-CEM leukemia = test system: CCRF-CEM leukemia
BT-549 breast = test system: BT-549 breast
ACHN renal = test system: ACHN renal
OVCAR-5 ovarian = test system: OVCAR-5 ovarian
MDA-MB-435 = test system: MDA-MB-435
IGROV1 ovarian = test system: IGROV1 ovarian
SK-OV-3 ovarian = test system: SK-OV-3 ovarian
MOLT-4 leukemia = test system: MOLT-4 leukemia
SF-295 CNS = test system: SF-295 CNS
SK-MEL-2 melanoma = test system: SK-MEL-2 melanoma
K-562 leukemia = test system: K-562 leukemia
SK-MEL-5 melanoma = test system: SK-MEL-5 melanoma
NCI-H460 lung = test system: NCI-H460 lung
RXF 393 renal = test system: RXF 393 renal
SF-268 CNS = test system: SF-268 CNS
MDA-MB-231 breast = test system: MDA-MB-231 breast
NCI-H23 lung = test system: NCI-H23 lung
PC-3 prostate = test system: PC-3 prostate
UACC-257 melanoma = test system: UACC-257 melanoma
LOX IMVI melanoma = test system: LOX IMVI melanoma
HT29 colon = test system: HT29 colon
HCC-2998 colon = test system: HCC-2998 colon
MDA-N = test system: MDA-N

CCN(CC)CCOc1nc2ccccc2c2c1-c1ccc(OC)cc1C2=O
GI50 (SN12C renal): 502 nM
TGI (SN12C renal): 6.21 µM
GI50 (SK-MEL-28 melanoma): 1630 nM
TGI (SK-MEL-28 melanoma): 3.29 µM
GI50 (DU-145 prostate): 505 nM
TGI (DU-145 prostate): 2160 nM
GI50 (NCI/ADR-RES ovarian): 807 nM
TGI (NCI/ADR-RES ovarian): 34.5 µM
GI50 (A549 NSCLC): 514 nM
TGI (A549 NSCLC): 4.55 µM
GI50 (T-47D breast): 2510 nM
TGI (T-47D breast): 8.8 µM
GI50 (HOP-92 NSCLC): 2090 nM
TGI (HOP-92 NSCLC): > 28.6 µM
GI50 (A498 renal): 728 nM
TGI (A498 renal): 2180 nM
GI50 (OVCAR-3 ovarian): 642 nM
TGI (OVCAR-3 ovarian): 2150 nM
GI50 (TK-10 renal): 1850 nM
TGI (TK-10 renal): 12.6 µM
GI50 (SF-539 CNS): 1340 nM
TGI (SF-539 CNS): 4.25 µM
GI50 (HCT-15 colon): 472 nM
TGI (HCT-15 colon): 4.82 µM
GI50 (HS 578T breast): 1190 nM
TGI (HS 578T breast): 5.78 µM
GI50 (SNB-75 CNS): 1440 nM
TGI (SNB-75 CNS): 5.19 µM
GI50 (CAKI-1 renal): 486 nM
TGI (CAKI-1 renal): 3.66 µM
GI50 (EKVX NSCLC): 1590 nM
TGI (EKVX NSCLC): 4.79 µM
GI50 (OVCAR-8 ovarian): 527 nM
TGI (OVCAR-8 ovarian): 5.7 µM
GI50 (HL-60(TB) leukemia): 395 nM
TGI (HL-60(TB) leukemia): 1850 nM
GI50 (M14 melanoma): 1360 nM
TGI (M14 melanoma): 3000 nM
GI50 (HOP-62 NSCLC): 1130 nM
GI50 (SW-620 colon): 282 nM
TGI (SW-620 colon): 1580 nM
GI50 (MCF7 breast): 345 nM
TGI (MCF7 breast): 2230 nM
GI50 (NCI-H522 lung): 613 nM
TGI (NCI-H522 lung): 2400 nM
GI50 (U251 CNS): 446 nM
TGI (U251 CNS): 2300 nM
GI50 (SR leukemia): 316 nM
TGI (SR leukemia): 1070 nM
GI50 (MALME-3M melanoma): 628 nM
TGI (MALME-3M melanoma): 1970 nM
GI50 (UO-31 renal): 130 nM
TGI (UO-31 renal): 1410 nM
GI50 (786-0 renal): 1170 nM
TGI (786-0 renal): 2680 nM
GI50 (NCI-H226 lung): 935 nM
TGI (NCI-H226 lung): 4.42 µM
GI50 (SNB-19 CNS): 788 nM
TGI (SNB-19 CNS): 6.6 µM
GI50 (UACC-62 melanoma): 1700 nM
TGI (UACC-62 melanoma): 4.48 µM
GI50 (COLO 205 colon): 490 nM
TGI (COLO 205 colon): 1880 nM
GI50 (KM12 colon): 395 nM
TGI (KM12 colon): 1580 nM
GI50 (RPMI-8226 leukemia): 449 nM
TGI (RPMI-8226 leukemia): 2150 nM
GI50 (OVCAR-4 ovarian): 1360 nM
TGI (OVCAR-4 ovarian): 6.83 µM
GI50 (HCT-116 colon): 331 nM
TGI (HCT-116 colon): 1550 nM
GI50 (CCRF-CEM leukemia): 267 nM
TGI (CCRF-CEM leukemia): 2230 nM
GI50 (BT-549 breast): 3.29 µM
TGI (BT-549 breast): 13.8 µM
GI50 (ACHN renal): 364 nM
TGI (ACHN renal): 2020 nM
GI50 (OVCAR-5 ovarian): 1610 nM
TGI (OVCAR-5 ovarian): 7.51 µM
GI50 (MDA-MB-435): 881 nM
TGI (MDA-MB-435): 2360 nM
GI50 (IGROV1 ovarian): 384 nM
TGI (IGROV1 ovarian): 2630 nM
GI50 (SK-OV-3 ovarian): 2480 nM
TGI (SK-OV-3 ovarian): > 36.6 µM
GI50 (MOLT-4 leukemia): 251 nM
TGI (MOLT-4 leukemia): 924 nM
GI50 (SF-295 CNS): 1910 nM
TGI (SF-295 CNS): 12.4 µM
GI50 (SK-MEL-2 melanoma): 2140 nM
TGI (SK-MEL-2 melanoma): 4.36 µM
GI50 (K-562 leukemia): 276 nM
TGI (K-562 leukemia): 1190 nM
GI50 (SK-MEL-5 melanoma): 1520 nM
TGI (SK-MEL-5 melanoma): 3.09 µM
GI50 (NCI-H460 lung): 317 nM
TGI (NCI-H460 lung): 1300 nM
GI50 (RXF 393 renal): 1630 nM
TGI (RXF 393 renal): 4.44 µM
GI50 (SF-268 CNS): 445 nM
TGI (SF-268 CNS): 2050 nM
GI50 (MDA-MB-231 breast): 1400 nM
TGI (MDA-MB-231 breast): 6.22 µM
GI50 (NCI-H23 lung): 1270 nM
TGI (NCI-H23 lung): 4.07 µM
GI50 (PC-3 prostate): 1440 nM
TGI (PC-3 prostate): 23.3 µM
GI50 (UACC-257 melanoma): 1600 nM
TGI (UACC-257 melanoma): 3.38 µM
GI50 (LOX IMVI melanoma): 432 nM
TGI (LOX IMVI melanoma): 1810 nM
GI50 (HT29 colon): 334 nM
TGI (HT29 colon): 1540 nM
GI50 (HCC-2998 colon): 1260 nM
TGI (HCC-2998 colon): 3.21 µM

CC1(C)CC(=O)c2c(N)n[nH]c2C1
TGI (SN12C renal): > 100 µM
TGI (SK-MEL-28 melanoma): > 100 µM
TGI (DU-145 prostate): > 100000 nM
TGI (NCI/ADR-RES ovarian): > 100 µM
TGI (MDA-N): > 100 µM
TGI (A549 NSCLC): > 100 µM
TGI (HOP-92 NSCLC): > 100 µM
TGI (A498 renal): > 100000 nM
TGI (OVCAR-3 ovarian): > 100000 nM
TGI (SF-539 CNS): > 100 µM
TGI (SNB-75 CNS): > 100 µM
TGI (CAKI-1 renal): > 100 µM
TGI (EKVX NSCLC): > 100 µM
TGI (OVCAR-8 ovarian): > 100 µM
TGI (HL-60(TB) leukemia): > 100000 nM
TGI (M14 melanoma): > 100000 nM
TGI (HOP-62 NSCLC): > 100 µM
TGI (SW-620 colon): > 100000 nM
TGI (MCF7 breast): > 100000 nM
TGI (NCI-H522 lung): > 100000 nM
TGI (U251 CNS): > 100000 nM
TGI (SR leukemia): > 100000 nM
TGI (MALME-3M melanoma): > 100000 nM
TGI (UO-31 renal): > 100000 nM
TGI (786-0 renal): > 100000 nM
TGI (NCI-H226 lung): > 100 µM
TGI (SNB-19 CNS): > 100 µM
TGI (UACC-62 melanoma): > 100 µM
TGI (COLO 205 colon): > 100000 nM
TGI (KM12 colon): > 100000 nM
TGI (RPMI-8226 leukemia): > 100000 nM
TGI (OVCAR-4 ovarian): > 100 µM
TGI (HCT-116 colon): > 100000 nM
TGI (CCRF-CEM leukemia): > 100000 nM
TGI (BT-549 breast): > 100 µM
TGI (ACHN renal): > 100000 nM
TGI (OVCAR-5 ovarian): > 100 µM
TGI (MDA-MB-435): > 100000 nM
TGI (IGROV1 ovarian): > 100000 nM
TGI (MOLT-4 leukemia): > 100000 nM
TGI (SF-295 CNS): > 100 µM
TGI (SK-MEL-2 melanoma): > 100 µM
TGI (K-562 leukemia): > 100000 nM
TGI (SK-MEL-5 melanoma): > 100 µM
TGI (NCI-H460 lung): > 100000 nM
TGI (RXF 393 renal): > 100 µM
TGI (MDA-MB-231 breast): > 100 µM
TGI (NCI-H23 lung): > 100 µM
TGI (PC-3 prostate): > 100 µM
TGI (UACC-257 melanoma): > 100 µM
TGI (LOX IMVI melanoma): > 100000 nM
TGI (HT29 colon): > 100000 nM
TGI (HCC-2998 colon): > 100 µM
